# Experimental data from patent US6706740B2, “Fungicidal heterocyclic aromatic amides and their compositions, methods of use and preparation” (Dow AgroSciences LLC, priority 1999, dated 2004).
# Where two headings read alike, the source gives them in different places.
# How the values were obtained:
# [1] = tested on: Magnaporthe grisea (Pyricularia oryzae—PYRIOR); test: microbe, parasite or virus in culture; type: cell-based; details: Pyricularia oryzae, read-out: PYRIOR in vitro Growth Inhibition
# [2] = tested on: Mycosphaerella graminicola (Septoria tritici—SEPTTR); test: In vitro fungal growth inhibition, Mycosphaerella graminicola (SEPTTR); type: cell-based; details: Zymoseptoria tritici, read-out: SEPTTR in vitro Growth Inhibition
# Ustilago maydis (USTIMA) = test: microbe, parasite or virus in culture; type: cell-based; details: Mycosarcoma maydis, read-out: USTIMA in vitro Growth Inhibition
# [3] = tested on: Phytophthora infestans—PHYTIN; test: whole plant or invertebrate; type: in vivo; details: Phytophthora, in Solanum lycopersicum, 24 h, read-out: PHYTIN in vivo 1 Day Protectant
# [4] = tested on: Puccinia recondita—PUCCRT; test: Brown Rust of Wheat, in vivo whole plant, 24 Hour Protectant; details: Puccinia, control of fungal infection vs untreated plants, read-out: PUCCRT in vivo 1 Day Protectant
# [5] = tested on: Phytophthora infestans (PHYTIN); test: microbe, parasite or virus in culture; type: cell-based; details: Phytophthora infestans, read-out: PHYTIN in vitro Growth Inhibition
# [6] = tested on: Leptosphaeria nodorum—LEPTNO; test: Glume Blotch of Wheat, in vivo whole plant, 24 Hour Protectant; details: control of fungal infection vs untreated plants; for pest or weed control at 100 ppm: Leptosphaeria, read-out: LEPTNO in vivo 1 Day Protectant
# [7] = tested on: Rhizoctonia solani (RHIZSO); test: microbe, parasite or virus in culture; type: cell-based; details: Rhizoctonia solani, read-out: RHIZSO in vitro Growth Inhibition
# Erysiphe graminis—ERYSGT = test: Powdery Mildew of Wheat, in vivo whole plant, 24 Hour Protectant; details: Erysiphe, control of fungal infection vs untreated plants, read-out: ERYSGT in vivo 1 Day Protectant
# Septoria tritici—SEPTTR = test: Leaf Blotch of Wheat, in vivo whole plant, 24 Hour Protectant; details: Zymoseptoria tritici, 24 h, control of fungal infection vs untreated plants, read-out: SEPTTR in vivo 1 Day Protectant
# [8] = tested on: Stagonospora nodorum (Leptosphaeria nodorum—LEPTNO); test: In vitro fungal growth inhibition, Stagonospora nodorum (LEPTNO); type: cell-based; details: Leptosphaeria, read-out: LEPTNO in vitro Growth Inhibition
# [9] = wheat plants sprayed at 100 ppm, inoculated after 24 hours
# [10] = 100 ppm spray, 24 hour protectant, wheat
Compound,inhibition at 25 ppm [1],inhibition at 25 ppm ([2]; 25 ppm in the growth medium),inhibition at 25 ppm (Ustilago maydis (USTIMA)),pest or weed control at 100 ppm [3],"pest or weed control at 100 ppm [4, 9]",inhibition at 25 ppm [5],"pest or weed control at 100 ppm [6, 9]",inhibition at 25 ppm [7],pest or weed control at 100 ppm (Erysiphe graminis—ERYSGT; [9]),pest or weed control at 100 ppm (Septoria tritici—SEPTTR; [9]),inhibition at 25 ppm ([8]; 25 ppm in the growth medium),melting point,inhibition at 25 ppm ([2]; 25 ppm in growth medium),"pest or weed control at 100 ppm [4, 10]","pest or weed control at 100 ppm [6, 10]",pest or weed control at 100 ppm (Erysiphe graminis—ERYSGT; [10]),pest or weed control at 100 ppm (Septoria tritici—SEPTTR; [10]),inhibition at 25 ppm ([8]; 25 ppm in growth medium),"LEPTNO in vivo 1 Day Protectant [6, 10]"
Cc1nc(O)c(C(=O)NC2CC(C)(C)CC(C)(C)C2)cc1Cl [Compound 530],< 80%,< 80%,< 80%,< 25%,25 to 74%,< 80%,25 to 74%,< 80%,< 25%,25 to 74%,< 80%,329 to 331 °C,,,,,,,
COc1ccccc1CNC(=O)c1ncccc1O [Compound 224],> 80%,,< 80%,< 25%,,< 80%,,< 80%,,,,75 to 76 °C,< 80%,< 25%,< 25%,< 25%,< 25%,< 80%,
COc1ccnc(C(=O)N[C@H]2C(O)[C@@H]3CC[C@H]2[C@@H]2CCCC[C@@H]23)c1O (stereo partly drawn) [Compound 293],< 80%,,< 80%,< 25%,,< 80%,,< 80%,,,,143 to 160 °C (dec.),< 80%,< 25%,25 to 74%,< 25%,25 to 74%,< 80%,
CC(C)(C)CNC(=O)c1cccnc1O [Compound 514],< 80%,< 80%,< 80%,< 25%,< 25%,< 80%,25 to 74%,< 80%,< 25%,< 25%,< 80%,180 to 181 °C,,,,,,,
COc1ccnc(C(=O)N[C@@H]2CCCC[C@H]2SC)c1O [Compound 273],< 80%,,< 80%,< 25%,,< 80%,,< 80%,,,,113 to 115 °C,< 80%,< 25%,25 to 74%,< 25%,25 to 74%,< 80%,
"CC1(C)CC(NC(=O)c2cscc2O)CC(C)(C)C1 [Compound 554, 4-HYDROXYTHIOPHENE-N-(3,3,5,5-TETRAMETHYLCYCLOHEXYL)-3-CARBOXAMIDE]",> 80%,< 80%,< 80%,< 25%,25 to 74%,> 80%,25 to 74%,< 80%,< 25%,25 to 74%,> 80%,170 to 174 °C,,,,,,,
O=C(NCCc1ccc(Cl)cc1)c1cccnc1O [Compound 518],< 80%,< 80%,< 80%,25 to 74%,< 25%,< 80%,< 25%,< 80%,< 25%,< 25%,< 80%,219 to 221 °C,,,,,,,
COc1ccnc(C(=O)N[C@H]2CC[C@H](Oc3ccc(C(F)(F)F)cc3)CC2)c1O [Compound 270],> 80%,,> 80%,25 to 74%,,< 80%,,> 80%,,,,168 to 172 °C (dec.),> 80%,25 to 74%,,25 to 74%,25 to 74%,> 80%,+ +
CSc1nnc(C(=O)Nc2ccc(Oc3cccc(C(F)(F)F)c3)cc2)c(O)n1 [Compound 548],< 80%,< 80%,< 80%,25 to 74%,< 25%,< 80%,25 to 74%,< 80%,< 25%,25 to 74%,< 80%,261 to 265 °C,,,,,,,
CSc1ccnc(C(=O)Nc2ccc(Oc3cccc(C(F)(F)F)c3)cc2)c1O [Compound 479],< 80%,< 80%,< 80%,< 25%,< 25%,< 80%,25 to 74%,< 80%,< 25%,25 to 74%,< 80%,129 to 132 °C,,,,,,,
COc1ccnc(C(=O)NC2CCN(Cc3ccc(C)cc3)CC2)c1O [Compound 306],< 80%,,< 80%,< 25%,,< 80%,,< 80%,,,,150 to 152 °C,< 80%,< 25%,< 25%,< 25%,25 to 74%,< 80%,
